# Measurements from ChEMBL document CHEMBL5532697, “Imidazopyrimidine: from a relatively exotic scaffold to an evolving structural motif in drug discovery” (RSC Med Chem, 2024).
# Tests used:
# A549 [1] = assay: Antiproliferative activity against human A549 cells assessed as inhibition of cell growth incubated for 48 hrs by alamarblue staining based assay; assay type: functional; conditions: A549, 48 h
# MCF7 = assay: Antiproliferative activity against human MCF7 cells assessed as inhibition of cell growth incubated for 48 hrs by alamarblue staining based assay; assay type: functional; conditions: MCF7, 48 h
# Pyruvate kinase PKM = Pyruvate kinase PKM (Homo sapiens, UniProt P14618); assay: Inhibition of recombinant PKM2 (unknown origin)
# COLO 205 = assay: Antiproliferative activity against human COLO 205 cells assessed as inhibition of cell growth incubated for 48 hrs by alamarblue staining based assay; assay type: functional; conditions: COLO 205, 48 h
# [2] = molecular target: cAMP and cAMP-inhibited cGMP 3',5'-cyclic phosphodiesterase 10A (Homo sapiens, UniProt Q9Y233); assay: Inhibition of full length human PDE10A incubated for 1 hr by topcount Scintillation plate reader analysis
# A549 [3] = assay: Antiproliferative activity against human A549 cells assessed as inhibition of cell growth incubated for 72 hrs by MTT assay; assay type: functional, cell-based; conditions: A549, 72 h
# CEM-DNR = assay: Antiproliferative activity against human CEM-DNR cells assessed as inhibition of cell growth incubated for 72 hrs by MTT assay; assay type: functional, cell-based
# K562 = assay: Antiproliferative activity against human K562 cells assessed as inhibition of cell growth incubated for 72 hrs by MTT assay; assay type: functional, cell-based; conditions: K562, 72 h
# CCRF-CEM = assay: Antiproliferative activity against human CCRF-CEM cells assessed as inhibition of cell growth incubated for 72 hrs by MTT assay; assay type: functional, cell-based
# HCT-116 = assay: Antiproliferative activity against human HCT-116 cells assessed as inhibition of cell growth incubated for 72 hrs by MTT assay; assay type: functional, cell-based; conditions: HCT-116, 72 h
# Candida dubliniensis = assay: Antifungal activity against Candida dubliniensis CD36 assessed as reduction in fungal growth incubated for 24 hrs by CLSI based assay; assay type: functional
# Kluyveromyces marxianus [4] = assay: Antifungal activity against Candida kefyr assessed as reduction in fungal growth incubated for 24 hrs by CLSI based assay; assay type: functional
# Nakaseomyces glabratus = assay: Antifungal activity against Candida glabrata CBS138 assessed as reduction in fungal growth incubated for 24 hrs by CLSI based assay; assay type: functional
# [5] = tested on: Meyerozyma guilliermondii; assay: Antifungal activity against Meyerozyma guilliermondii assessed as reduction in fungal growth incubated for 24 hrs by CLSI based assay; assay type: functional
# Pichia kudriavzevii = assay: Antifungal activity against Candida krusei ATCC 6358 assessed as reduction in fungal growth incubated for 24 hrs by CLSI based assay; assay type: functional
# Candida tropicalis = assay: Antifungal activity against Candida tropicalis MYA-3404 assessed as reduction in fungal growth incubated for 24 hrs by CLSI based assay; assay type: functional
# Candida albicans [6] = assay: Antifungal activity against Candida albicans ATCC 10231 assessed as reduction in fungal growth incubated for 24 hrs by CLSI based assay; assay type: functional
# A549 [7] = assay: Antiproliferative activity against human A549 cells assessed as inhibition of cell growth by MTT assay; assay type: functional, cell-based
# Albumin = Albumin (Homo sapiens, UniProt P02768); assay: Inhibition of Albumin (unknown origin) denaturation at 100 uM relative to control
# [8] = Cytotoxicity against human HFF cells assessed as cell growth inhibition by celltiter-glo assay; assay type: toxicity, cell-based
# BK polyomavirus = assay: Antiviral activity against BK polyomavirus MM infected in human HFF cells assessed as reduction in viral growth incubated for 7 days; assay type: functional, organism-based; conditions: Betapolyomavirus hominis, 168 h
# Aorta = assay: Vasorelaxant activity in rabbit aorta assessed as inhibition of phenylephrine-induced contraction; assay type: functional, tissue-based; conditions: Oryctolagus cuniculus
# Candida albicans [9] = assay: Antifungal activity against Candida albicans NCPF 400034 assessed as inhibition of fungal growth incubated for 48 hrs; assay type: functional
# Kluyveromyces marxianus [10] = assay: Antifungal activity against Candida keyfer […] 410004 assessed as inhibition of fungal growth incubated for 48 hrs; assay type: functional
# Cryptococcus neoformans = assay: Antifungal activity against Cryptococcus neoformans NCPF 250316 assessed as inhibition of fungal growth incubated for 48 hrs; assay type: functional
# Neurospora crassa = assay: Antifungal activity against Neurospora crassa assessed as inhibition of fungal growth incubated for 48 hrs; assay type: functional
# Aspergillus niger = assay: Antifungal activity against Aspergillus niger assessed as inhibition of fungal growth incubated for 48 hrs; assay type: functional
# Sequence of Pyruvate kinase PKM (P14618 whole entry): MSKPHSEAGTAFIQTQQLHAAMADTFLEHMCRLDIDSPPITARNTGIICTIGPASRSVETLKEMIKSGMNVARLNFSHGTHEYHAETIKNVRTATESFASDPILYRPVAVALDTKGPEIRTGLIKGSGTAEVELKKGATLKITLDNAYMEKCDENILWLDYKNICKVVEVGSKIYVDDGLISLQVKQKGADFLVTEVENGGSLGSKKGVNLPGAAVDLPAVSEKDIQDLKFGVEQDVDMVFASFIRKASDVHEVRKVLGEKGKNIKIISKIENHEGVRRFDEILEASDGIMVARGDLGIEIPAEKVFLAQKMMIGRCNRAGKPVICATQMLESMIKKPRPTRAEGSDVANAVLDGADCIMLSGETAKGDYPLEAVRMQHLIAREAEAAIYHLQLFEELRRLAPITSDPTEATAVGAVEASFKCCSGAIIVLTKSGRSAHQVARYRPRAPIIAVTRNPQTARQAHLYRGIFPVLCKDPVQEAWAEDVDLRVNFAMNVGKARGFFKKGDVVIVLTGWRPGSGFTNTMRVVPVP
# Sequence of cAMP and cAMP-inhibited cGMP 3',5'-cyclic phosphodiesterase 10A (Q9Y233 whole entry): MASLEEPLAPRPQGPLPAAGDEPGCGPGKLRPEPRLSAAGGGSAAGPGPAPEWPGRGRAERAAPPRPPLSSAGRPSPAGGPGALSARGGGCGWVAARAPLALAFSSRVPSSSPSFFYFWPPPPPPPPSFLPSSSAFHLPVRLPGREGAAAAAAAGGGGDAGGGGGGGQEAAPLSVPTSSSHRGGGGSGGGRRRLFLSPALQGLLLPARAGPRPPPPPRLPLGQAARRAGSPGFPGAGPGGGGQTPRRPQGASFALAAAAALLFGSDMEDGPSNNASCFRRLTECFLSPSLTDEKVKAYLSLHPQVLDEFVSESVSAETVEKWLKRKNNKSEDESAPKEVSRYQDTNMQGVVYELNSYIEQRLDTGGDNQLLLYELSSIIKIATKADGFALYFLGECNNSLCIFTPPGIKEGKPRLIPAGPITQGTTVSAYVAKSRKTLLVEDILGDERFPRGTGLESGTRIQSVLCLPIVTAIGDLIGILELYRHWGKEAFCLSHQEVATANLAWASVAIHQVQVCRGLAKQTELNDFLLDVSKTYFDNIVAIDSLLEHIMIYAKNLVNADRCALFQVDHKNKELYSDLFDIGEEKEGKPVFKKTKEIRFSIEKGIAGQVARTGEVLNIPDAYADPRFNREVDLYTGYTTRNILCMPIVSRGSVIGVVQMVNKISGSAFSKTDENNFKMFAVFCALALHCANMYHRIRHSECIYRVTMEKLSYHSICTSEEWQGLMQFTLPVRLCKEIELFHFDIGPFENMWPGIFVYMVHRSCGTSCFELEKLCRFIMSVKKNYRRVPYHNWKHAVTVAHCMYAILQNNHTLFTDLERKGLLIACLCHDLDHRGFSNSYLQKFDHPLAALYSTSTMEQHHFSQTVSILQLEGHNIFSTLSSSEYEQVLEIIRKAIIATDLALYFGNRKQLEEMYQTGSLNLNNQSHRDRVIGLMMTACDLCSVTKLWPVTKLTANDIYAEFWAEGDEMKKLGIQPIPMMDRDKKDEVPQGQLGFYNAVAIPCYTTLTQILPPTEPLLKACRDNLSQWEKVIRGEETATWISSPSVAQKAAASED
# Sequence of Albumin (P02768 whole entry): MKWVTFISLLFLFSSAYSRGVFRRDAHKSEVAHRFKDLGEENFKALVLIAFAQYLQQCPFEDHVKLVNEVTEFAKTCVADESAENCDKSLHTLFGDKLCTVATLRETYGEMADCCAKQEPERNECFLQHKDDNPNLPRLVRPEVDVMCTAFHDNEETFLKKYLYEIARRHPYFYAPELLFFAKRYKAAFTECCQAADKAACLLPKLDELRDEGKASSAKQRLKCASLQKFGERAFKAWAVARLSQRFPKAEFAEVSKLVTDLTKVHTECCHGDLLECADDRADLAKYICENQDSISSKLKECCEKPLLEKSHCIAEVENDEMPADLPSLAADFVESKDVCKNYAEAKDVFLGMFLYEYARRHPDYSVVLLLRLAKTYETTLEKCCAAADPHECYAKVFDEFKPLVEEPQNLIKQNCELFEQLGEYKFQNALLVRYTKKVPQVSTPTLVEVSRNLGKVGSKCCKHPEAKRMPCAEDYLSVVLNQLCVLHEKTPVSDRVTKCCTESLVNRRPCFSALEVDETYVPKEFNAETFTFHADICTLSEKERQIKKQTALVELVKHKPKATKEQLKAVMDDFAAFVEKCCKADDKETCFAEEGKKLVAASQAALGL
smiles,measurement,setting,value
O=C(CN1CCN(c2ncccn2)CC1)c1cnc2ncccn12,IC50,A549 [1],24.4 µM
same,IC50,MCF7,14.7 µM
same,IC50,Pyruvate kinase PKM,0.45 µM
same,IC50,COLO 205,65.8 µM
Cc1c(C(=O)N2CCC2)cnn1C(=O)Nc1ccn2cc(-c3ccccc3)nc2n1,IC50,[2],0.003 µM
N#Cc1ccc(-c2c[nH]c(=O)n3ccnc23)cc1,IC50,A549 [3],5.07 µM
same,IC50,CEM-DNR,18.8 µM
same,IC50,K562,17.7 µM
same,IC50,CCRF-CEM,1.45 µM
same,IC50,HCT-116,42.5 µM
O=C(c1ccccc1)c1cnc2ncccn12,MIC,Candida dubliniensis,0.062 µg/mL
same,MIC,Kluyveromyces marxianus [4],0.125 µg/mL
same,MIC,Nakaseomyces glabratus,0.062 µg/mL
same,MIC,[5],0.062 µg/mL
same,MIC,Pichia kudriavzevii,0.5 µg/mL
same,MIC,Candida tropicalis,0.5 µg/mL
same,MIC,Candida albicans [6],0.125 µg/mL
N#Cc1ccccc1N1CCN(CC(=O)c2cnc3ncccn23)CC1,IC50,A549 [1],27.9 µM
same,IC50,MCF7,11 µM
same,IC50,Pyruvate kinase PKM,1.2 µM
same,IC50,COLO 205,64.8 µM
CC(=O)NC1(Cc2c[nH]c3ccc(Br)cc23)C(=O)N=C2N=CC=CN21 (stereo not drawn),IC50,A549 [7],1.4 µM
CCOC(=O)c1ccc(-c2cn3cccnc3n2)cc1,inhibition at 100 µM,Albumin,54.2%
CS(=O)(=O)C1=CNC(=O)N2CCN=C12,CC50,[8],> 150 µM
same,EC50,BK polyomavirus,22.4 µM
Cc1c(C(=O)N2CCC2)cnn1CC(=O)Nc1ccn2cc(-c3ccccc3)nc2n1,IC50,[2],0.004 µM
Cc1c(C(=O)N2CC=CC2)cnn1C(=O)Nc1ccn2cc(-c3ccccc3)nc2n1,IC50,[2],0.009 µM
COc1ccc(C(=O)N2CCN(CC(=O)c3cnc4ncccn34)CC2)cc1,IC50,A549 [1],24 µM
same,IC50,MCF7,11.6 µM
same,IC50,Pyruvate kinase PKM,0.314 µM
same,IC50,COLO 205,44.9 µM
Cc1ccc(N2CCN(CC(=O)c3cnc4ncccn34)CC2)cc1,IC50,A549 [1],27.1 µM
same,IC50,MCF7,14.5 µM
same,IC50,Pyruvate kinase PKM,0.06 µM
same,IC50,COLO 205,57.8 µM
Nc1nc(N)nc(-c2nc(Cc3ccccc3F)c3ncccn23)n1,IC50,Aorta,0.215 µM
O=C(CN1CCN(c2ccco2)CC1)c1cnc2ncccn12,IC50,A549 [1],19.4 µM
same,IC50,MCF7,10.9 µM
same,IC50,Pyruvate kinase PKM,0.31 µM
same,IC50,COLO 205,61 µM
O=C(O)c1ccccc1Nc1c(Cl)cccc1Cl,inhibition at 100 µM,Albumin,84.7%
O=C(CN1CCN(C(=O)c2ccc(Cl)cc2)CC1)c1cnc2ncccn12,IC50,A549 [1],25.3 µM
same,IC50,MCF7,11.8 µM
same,IC50,Pyruvate kinase PKM,1.86 µM
same,IC50,COLO 205,28 µM
O=c1[nH]cc(-c2ccc(-c3ccccc3)cc2)c2nccn12,IC50,A549 [3],10.1 µM
same,IC50,CEM-DNR,2.84 µM
same,IC50,K562,15.2 µM
same,IC50,CCRF-CEM,8.59 µM
CC(=O)NC1(Cc2ccc(N)cc2)C(=O)N=C2N=CC=CN21 (stereo not drawn),IC50,A549 [7],3.2 µM
Cc1ccc(C(=O)c2cnc3ncccn23)cc1,MIC,Candida dubliniensis,0.25 µg/mL
same,MIC,Kluyveromyces marxianus [4],0.5 µg/mL
same,MIC,Nakaseomyces glabratus,0.062 µg/mL
same,MIC,[5],0.062 µg/mL
same,MIC,Pichia kudriavzevii,0.5 µg/mL
same,MIC,Candida tropicalis,0.25 µg/mL
same,MIC,Candida albicans [6],0.12 µg/mL
C[C@@H]1[C@H](O)[C@@H](C)/C=C/C=C/C=C/C=C/C=C/C=C/C=C/[C@H](O[C@@H]2O[C@H](C)[C@@H](O)[C@H](N)[C@@H]2O)C[C@@H]2O[C@](O)(C[C@@H](O)C[C@@H](O)[C@H](O)CC[C@@H](O)C[C@@H](O)CC(=O)O[C@H]1C)C[C@H](O)[C@H]2C(=O)O [AMPHOTERICIN B],MIC,Candida albicans [9],0.78 µg/mL
same,MIC,Kluyveromyces marxianus [10],12.5 µg/mL
same,MIC,Cryptococcus neoformans,0.2 µg/mL
same,MIC,Neurospora crassa,0.39 µg/mL
same,MIC,Aspergillus niger,0.39 µg/mL
Nc1ccn(C[C@@H](CO)OCP(=O)(O)O)c(=O)n1 [CIDOFOVIR ANHYDROUS],CC50,[8],> 150 µM
same,EC50,BK polyomavirus,0.24 µM
CC(C)(C)c1nc(-c2cccc(NS(=O)(=O)c3c(F)cccc3F)c2F)c(-c2ccnc(N)n2)s1 [DABRAFENIB],IC50,A549 [7],0.003 µM
OC(Cn1cncn1)(Cn1cncn1)c1ccc(F)cc1F [FLUCONAZOLE],MIC,Candida dubliniensis,0.5 µg/mL
same,MIC,Kluyveromyces marxianus [4],1 µg/mL
same,MIC,[5],1 µg/mL
same,MIC,Pichia kudriavzevii,4 µg/mL
same,MIC,Candida tropicalis,1 µg/mL
same,MIC,Candida albicans [6],0.5 µg/mL
CC(=O)N1CCN(c2ccc(OCC3COC(Cn4ccnc4)(c4ccc(Cl)cc4Cl)O3)cc2)CC1 (stereo not drawn) [KETOCONAZOLE],MIC,Candida dubliniensis,2 µg/mL
same,MIC,Kluyveromyces marxianus [4],0.25 µg/mL
same,MIC,Nakaseomyces glabratus,0.25 µg/mL
same,MIC,[5],0.125 µg/mL
same,MIC,Pichia kudriavzevii,1 µg/mL
same,MIC,Candida tropicalis,2 µg/mL
same,MIC,Candida albicans [6],8 µg/mL
